Reference: paper PMC10011554, “BET inhibitor trotabresib in heavily pretreated patients with solid tumors and diffuse large B-cell lymphomas” (Nature Communications, 2023)

Experiment: Adverse events, DLTs, MTD and RP2D in phase I study CC-90010-ST-001 (NCI CTCAE v4.03)
Assay type: in vivo
Description: The primary endpoints of the study were the safety and tolerability of trotabresib, as well as the MTD and/or RP2D of trotabresib. Safety was assessed using the National Cancer Institute Common Terminology Criteria for Adverse Events v4.03[53].
The decision to evaluate additional subjects within a dose cohort, a higher dose cohort, intermediate dose cohorts, smaller dose increments, alternate dosing schedules, or declare an MTD will also be determined by the SRC, based on their review of clinical and laboratory safety […]
7.2.4. Definition of a Subject Evaluable for DLT
After the first dose is administered in any cohort during dose escalation, subjects in each cohort […]
more than one subject per day will be enrolled in a given dose escalation cohort.
A subject evaluable for DLT is defined as one that: […]
without experiencing a DLT,
Subjects non-evaluable for DLT will be replaced. Additional subjects within any dose cohort may be enrolled at the discretion of the SRC. Intra-subject dose escalation will not be allowed during the DLT assessment period.
7.2.5. Definition of Maximum Tolerated Dose (MTD) […]
of MTD is described in Section 7.2.2.
A variable dose cohort (eg, less frequent dosing) may be evaluated to accurately determine the MTD at the discretion of the SRC.
7.2.6. Definition of Dose-Limiting Toxicity (DLT) […]
used as a guide for the grading of severity of adverse events. A DLT is defined as any of the following toxicities occurring within the DLT assessment unless the event can clearly be […]
Do se-limiting toxicities are described below:
• Hyperglycemia meeting any of the following criteria:
− Grade 3 or greater fasting hyperglycemia (> 250 mg/dL) lasting > 4 days despite optimal medical treatment
(1 picture or pasted object on this page, not shown here)
− Hyperglycemia associated with diabetic ketoacidosis or nonketotic hyperosmolar coma regardless of glucose level
− Hyperglycemia that necessitates dose reduction despite dose interruption and resolution to ≤ grade 1 hyperglycemia within two weeks as described in […]
• Any Grade 4 non-hematologic toxicity of any duration
• Any non-hematologic toxicity Grade ≥ 3 EXCEPT for:
− Grade 3 diarrhea, nausea, or vomiting of ≤ 3 days duration (with optimal medical […]
− Grade 3 rash of the acneiform, pustular or maculopapular type which resolves to […]
level with resumption of study drug at the same dose (with optimal medical […]
− Grade 3 fatigue which resolves to Grade ≤ 2 within 7 days of study drug […]
the same dose (with optimal medical management).
• Hematological toxicities as follows:
− Grade 4 neutropenia lasting > 7 days
− Grade 4 thrombocytopenia lasting > 7 days, Grade ≥ 3 thrombocytopenia with clinically significant bleeding
• Any AE, Grade ≥ 2 not specified or exempt above, unless clearly determined to be unrelated to the drug, necessitating dose-level reduction during Cycle 1.
Isolated laboratory changes without associated clinical signs or symptoms (eg, hypomagnesemia, hypermagnesemia, hypoalbuminemia, hypophosphatemia, lymphocyte count increased or decreased) may not be included in this definition. These findings will be discussed and reviewed […]
7.2.7. Criteria for Dose Escalation in the Next Cohort of Subjects
During Part A, the dose escalation criteria are described in Section 7.2.2.
7.2.8. Definition of Stopping Criteria
During Part A, the dose escalation stopping rules are in Section 7.2.2.
7.2.9. Permitted Study Drug Adjustments
Dose reductions are permitted in any cycle, including Cycle 1.
• Dose reductions that occur in Cycle 1 during dose escalation will constitute DLT as […]

[1] = part B (12 subjects), 02 Dec 2019 cutoff

Cn1cc(-c2cc(S(C)(=O)=O)ccc2OCC2CC2)c2ccccc2c1=O [trotabresib]
TRAE: Hyperglycemia (part A, grade 3): 1.45%
TRAE: Hypertension (part A, grade 3): 0%
TRAE: Hyponatremia (part A, grade 3): 1.45%
TRAE: Hypophosphatemia (part A, grade 3): 1.45%
TRAE: Nausea (part A, grade 3): 0%
TRAE: Neutropenia (part A, grade 3): 1.45%
TRAE: Platelet count decreased (part A, grade 3): 1.45%
TRAE: Stomatitis (part A, grade 3): 0%
TRAE: Thrombocytopenia (part A, grade 3): 10.14%
TRAE: Vomiting (part A, grade 3): 0%
TRAE: ALT increased (part A, grade 4): 0%
TRAE: Anemia (part A, grade 4): 0%
TRAE: Any TRAE (part A, grade 4): 7.25%
TRAE: Asthenia (part A, grade 4): 0%
TRAE: Decreased appetite (part A, grade 4): 0%
TRAE: Dehydration (part A, grade 4): 0%
TRAE: Dermatitis acneiform (part A, grade 4): 0%
TRAE: Diarrhoea (part A, grade 4): 0%
TRAE: Dysgeusia (part A, grade 4): 0%
TRAE: Fatigue (part A, grade 4): 0%
TRAE: Hyperglycemia (part A, grade 4): 0%
TRAE: Hypertension (part A, grade 4): 0%
TRAE: Hyponatremia (part A, grade 4): 1.45%
TRAE: Hypophosphatemia (part A, grade 4): 0%
TRAE: Nausea (part A, grade 4): 0%
TRAE: Neutropenia (part A, grade 4): 0%
TRAE: Platelet count decreased (part A, grade 4): 1.45%
TRAE: Stomatitis (part A, grade 4): 0%
TRAE: Thrombocytopenia (part A, grade 4): 2.9%
TRAE: Vomiting (part A, grade 4): 0%
Grade 3 hyperglycemia, treatment-related [1]: 8.3%
Grade 4 hyperglycemia, treatment-related [1]: 8.3%
TEAE anemia [1]: 66.7%
TEAE thrombocytopenia [1]: 58.3%
hyperglycemia [1]: 33.3%
subjects with at least one TEAE [1]: 83.3%
TRAE: ALT increased (part B DLBCL, any grade): 8.7%
TRAE: Anemia (part B DLBCL, any grade): 43.48%
TRAE: Any TRAE (part B DLBCL, any grade): 100%
TRAE: Asthenia (part B DLBCL, any grade): 21.74%
TRAE: Decreased appetite (part B DLBCL, any grade): 21.74%
TRAE: Dehydration (part B DLBCL, any grade): 13.04%
TRAE: Dermatitis acneiform (part B DLBCL, any grade): 0%
TRAE: Diarrhoea (part B DLBCL, any grade): 52.17%
TRAE: Dysgeusia (part B DLBCL, any grade): 8.7%
TRAE: Fatigue (part B DLBCL, any grade): 0%
TRAE: Hyperglycemia (part B DLBCL, any grade): 39.13%
TRAE: Hypertension (part B DLBCL, any grade): 4.35%
TRAE: Hyponatremia (part B DLBCL, any grade): 8.7%
TRAE: Hypophosphatemia (part B DLBCL, any grade): 17.39%
TRAE: Nausea (part B DLBCL, any grade): 21.74%
TRAE: Neutropenia (part B DLBCL, any grade): 39.13%
TRAE: Platelet count decreased (part B DLBCL, any grade): 0%
TRAE: Stomatitis (part B DLBCL, any grade): 17.39%
TRAE: Thrombocytopenia (part B DLBCL, any grade): 91.3%
TRAE: Vomiting (part B DLBCL, any grade): 17.39%
TRAE: ALT increased (part B DLBCL, grade 3): 0%
TRAE: Anemia (part B DLBCL, grade 3): 26.09%
TRAE: Any TRAE (part B DLBCL, grade 3): 26.09%
TRAE: Asthenia (part B DLBCL, grade 3): 8.7%
TRAE: Decreased appetite (part B DLBCL, grade 3): 4.35%
TRAE: Dehydration (part B DLBCL, grade 3): 13.04%
TRAE: Dermatitis acneiform (part B DLBCL, grade 3): 0%
TRAE: Diarrhoea (part B DLBCL, grade 3): 0%
TRAE: Dysgeusia (part B DLBCL, grade 3): 0%
TRAE: Fatigue (part B DLBCL, grade 3): 0%
TRAE: Hyperglycemia (part B DLBCL, grade 3): 4.35%
TRAE: Hypertension (part B DLBCL, grade 3): 4.35%
TRAE: Hyponatremia (part B DLBCL, grade 3): 0%
TRAE: Hypophosphatemia (part B DLBCL, grade 3): 13.04%
TRAE: Nausea (part B DLBCL, grade 3): 4.35%
TRAE: Neutropenia (part B DLBCL, grade 3): 13.04%
TRAE: Platelet count decreased (part B DLBCL, grade 3): 0%
TRAE: Stomatitis (part B DLBCL, grade 3): 0%
TRAE: Thrombocytopenia (part B DLBCL, grade 3): 17.39%
TRAE: Vomiting (part B DLBCL, grade 3): 0%
TRAE: ALT increased (part B DLBCL, grade 4): 0%
TRAE: Anemia (part B DLBCL, grade 4): 0%
TRAE: Any TRAE (part B DLBCL, grade 4): 65.22%
TRAE: Asthenia (part B DLBCL, grade 4): 0%
TRAE: Decreased appetite (part B DLBCL, grade 4): 0%
TRAE: Dehydration (part B DLBCL, grade 4): 0%
TRAE: Dermatitis acneiform (part B DLBCL, grade 4): 0%
TRAE: Diarrhoea (part B DLBCL, grade 4): 0%
TRAE: Dysgeusia (part B DLBCL, grade 4): 0%
TRAE: Fatigue (part B DLBCL, grade 4): 0%
TRAE: Hyperglycemia (part B DLBCL, grade 4): 4.35%
